Test results published in ChEMBL document CHEMBL1134415, “Potent and selective ET-A antagonists. 2. Discovery and evaluation of potent and water soluble N-(6-(2-(aryloxy)ethoxy)-4-pyrimidinyl)sulfonamide derivatives” (J Med Chem, 2001).

How the values were obtained:
[1] = target: T1, Endothelin receptor type B (Homo sapiens, UniProt P24530); experiment: Ability to inhibit [125I]-ET-1 binding to human cloned ETB receptors expressed on CHO cells; type: cell-based
T1 sequence (P24530 whole entry): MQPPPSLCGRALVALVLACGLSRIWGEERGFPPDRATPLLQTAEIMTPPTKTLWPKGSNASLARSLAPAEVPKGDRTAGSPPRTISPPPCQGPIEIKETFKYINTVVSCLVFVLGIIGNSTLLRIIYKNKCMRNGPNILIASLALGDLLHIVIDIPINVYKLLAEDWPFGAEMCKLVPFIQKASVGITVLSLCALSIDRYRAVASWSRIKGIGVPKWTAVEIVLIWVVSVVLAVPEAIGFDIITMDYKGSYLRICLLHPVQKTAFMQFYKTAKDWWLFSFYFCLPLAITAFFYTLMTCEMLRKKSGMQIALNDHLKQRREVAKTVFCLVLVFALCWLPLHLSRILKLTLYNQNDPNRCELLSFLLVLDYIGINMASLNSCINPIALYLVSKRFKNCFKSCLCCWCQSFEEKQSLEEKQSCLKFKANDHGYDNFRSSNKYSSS

Endothelin-1 receptor [2] = target: T2, Endothelin-1 receptor (Sus scrofa, UniProt Q29010); experiment: Ability to inhibit [125I]ET1 binding to endothelin A receptor in porcine aortic membrane; type: cell membranes
T2 sequence (Q29010 whole entry): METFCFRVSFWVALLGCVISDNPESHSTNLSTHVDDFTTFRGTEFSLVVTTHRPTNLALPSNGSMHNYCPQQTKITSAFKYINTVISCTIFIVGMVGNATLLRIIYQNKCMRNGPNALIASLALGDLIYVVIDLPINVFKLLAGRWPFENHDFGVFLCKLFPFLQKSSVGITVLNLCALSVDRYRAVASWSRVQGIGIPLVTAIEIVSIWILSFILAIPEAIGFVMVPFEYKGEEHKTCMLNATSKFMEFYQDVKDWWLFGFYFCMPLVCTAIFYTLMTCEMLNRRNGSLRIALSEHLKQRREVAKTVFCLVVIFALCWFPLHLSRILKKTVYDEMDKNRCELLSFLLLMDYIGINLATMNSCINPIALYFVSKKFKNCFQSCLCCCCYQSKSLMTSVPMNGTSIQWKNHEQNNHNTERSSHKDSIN

Endothelin-1 receptor [3] = target: T3, Endothelin-1 receptor (Homo sapiens, UniProt P25101); experiment: Ability to inhibit [125I]ET1 binding to human cloned endothelin A receptor expressed on CHO cells; type: cell-based
T3 sequence (P25101 whole entry): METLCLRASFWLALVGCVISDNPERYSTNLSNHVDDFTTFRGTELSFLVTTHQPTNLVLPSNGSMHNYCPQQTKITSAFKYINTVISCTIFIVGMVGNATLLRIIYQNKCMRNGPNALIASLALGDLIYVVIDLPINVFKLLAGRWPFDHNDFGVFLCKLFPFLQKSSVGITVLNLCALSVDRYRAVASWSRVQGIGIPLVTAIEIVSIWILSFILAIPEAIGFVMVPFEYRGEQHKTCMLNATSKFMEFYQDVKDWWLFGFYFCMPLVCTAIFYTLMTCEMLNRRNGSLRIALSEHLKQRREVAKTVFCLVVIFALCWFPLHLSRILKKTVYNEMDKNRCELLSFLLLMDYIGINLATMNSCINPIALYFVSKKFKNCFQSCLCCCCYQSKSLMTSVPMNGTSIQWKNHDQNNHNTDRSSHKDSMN

[4] = Ability to inhibit specific binding of [125I]- -ET-1 to rat A 10 cells which express endothelin A receptor
[5] = target: T1, Endothelin receptor type B; experiment: Ability to inhibit specific binding of [125I]- -ET-1 to human GH cells which express endothelin B receptor; type: cell-based

For `Cc1ccc(-c2c(NS(=O)(=O)c3ccc(C(C)(C)C)cc3)ncnc2OCCOc2ncc(Br)cn2)cc1`, the Ki [1] was 130 nM, the IC50 (Endothelin-1 receptor [2]) was < 0.001 nM and the Ki (Endothelin-1 receptor [3]) was 0.0042 nM. The IC50 [4] was 0.039 nM.

Work on `CSc1cnc(OCCOc2ncnc(NS(=O)(=O)c3ccc(C(C)(C)C)cc3)c2-c2ccc(CO)cc2)nc1` yielded an IC50 (Endothelin-1 receptor [2]) of 0.04 nM.

In the case of `Cc1ccc(-c2c(NS(=O)(=O)c3ccc(C(C)(C)C(=O)O)cc3)ncnc2OCCOc2ncc(Br)cn2)cc1`, the IC50 (Endothelin-1 receptor [2]) is reported as 1.4 nM.

In the case of `CSc1cnc(OCCOc2ncnc(NS(=O)(=O)c3ccc(C(C)(C)C)cc3)c2-c2ccc(C(=O)O)cc2)nc1`, the IC50 (Endothelin-1 receptor [2]) is reported as > 10 nM.

With `CSc1cnc(OCCOc2ncnc(NS(=O)(=O)c3ccc(C(C)(C)C)cc3)c2-c2ccc(C)cc2)nc1` the IC50 (Endothelin-1 receptor [2]) was < 0.001 nM.

Compound `Cc1ccc(-c2c(NS(=O)(=O)c3ccc(C(C)(C)C)cc3)ncnc2OCCOc2ncc(CO)cn2)cc1` has an IC50 [5] of 31 nM.

In the case of `CC(C)(C)c1ccc(S(=O)(=O)Nc2ncnc(OCCOc3ncc(Br)cn3)c2-c2ccc(CO)cc2)cc1`, the IC50 (Endothelin-1 receptor [2]) is reported as 0.04 nM.

With `Cc1ccc(-c2c(NS(=O)(=O)c3ccc(C(C)(C)C)cc3)ncnc2OCCOc2ncc(C(=O)O)cn2)cc1` the IC50 (Endothelin-1 receptor [2]) was > 10 nM.
